Results: patent US12378249B2, “Isoquinoline compounds and uses thereof” (Genentech, Inc., priority 2018, dated 2025)

Biological target: HPK1 (Homo sapiens (Human), UniProt Q92918, S171E/T165E)
Experiment: HPK1-FL HTRF Enzymatic Assay (HTRF)
Type: biochemical
Details: HPK full length T165E S171E 0.125 nM, ATP 1 mM, Biotin-SLP76 100 nM, read-out: HPK1 Ki (nM), H = HTRF
Summary of the method: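 Ki derived from % activity calculated from the TR-FRET 665/620 ratio, using Eu-anti-pSLP76 and SA-XL665 detection added for 60 min. Reaction: compound preincubated 30 min with full-length double-mutant HPK1, then 60 min with Biotin-SLP-76 and 1 mM ATP, pH 7.5 HEPES buffer.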

HPK1, sequence (Q92918 whole entry T165E/S171E): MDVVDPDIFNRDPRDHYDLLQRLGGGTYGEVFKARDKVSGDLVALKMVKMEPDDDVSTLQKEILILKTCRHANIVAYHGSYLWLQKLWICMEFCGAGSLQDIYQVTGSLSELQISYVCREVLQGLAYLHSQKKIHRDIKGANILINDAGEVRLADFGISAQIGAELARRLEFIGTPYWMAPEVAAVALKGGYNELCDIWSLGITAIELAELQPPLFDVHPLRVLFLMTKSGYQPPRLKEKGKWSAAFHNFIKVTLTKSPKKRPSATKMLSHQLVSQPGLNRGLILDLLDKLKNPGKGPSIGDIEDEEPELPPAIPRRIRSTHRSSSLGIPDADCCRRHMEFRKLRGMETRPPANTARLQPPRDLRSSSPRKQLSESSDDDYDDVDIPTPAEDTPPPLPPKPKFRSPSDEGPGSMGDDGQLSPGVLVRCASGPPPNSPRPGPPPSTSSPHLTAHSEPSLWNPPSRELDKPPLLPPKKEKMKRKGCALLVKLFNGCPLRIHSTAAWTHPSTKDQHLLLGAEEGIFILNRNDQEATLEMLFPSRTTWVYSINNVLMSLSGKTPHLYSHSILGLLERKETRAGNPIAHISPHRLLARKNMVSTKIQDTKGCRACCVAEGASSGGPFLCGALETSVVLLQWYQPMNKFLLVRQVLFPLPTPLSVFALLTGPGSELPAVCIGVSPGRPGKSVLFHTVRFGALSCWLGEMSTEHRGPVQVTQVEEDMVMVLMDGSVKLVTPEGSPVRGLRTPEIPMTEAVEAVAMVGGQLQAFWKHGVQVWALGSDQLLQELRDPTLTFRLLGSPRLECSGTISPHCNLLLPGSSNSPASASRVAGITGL

Row | Ki [nM] | Structure (SMILES)
1 | 97 | Cc1c(-c2cc3cc(Nc4cc5n(n4)CC(=O)N(C)CC5)ncc3cc2F)ccc2c1CNC2 [Compound 221, 2-((7-fluoro-6-(4-methylisoindolin-5-yl)isoquinolin-3-yl)amino)-6-methyl-5,6-dihydro-4H-pyrazolo[1,5-d][1,4]diazepin-7(8H)-one]
2 | 5.2 | CNCc1cc(C)c(-c2ccc3cnc(Nc4cc5n(n4)CC(=O)N(C)CC5)cc3c2)c(F)c1 [Compound 222, 2-((6-(2-fluoro-6-methyl-4-((methylamino)methyl)phenyl)isoquinolin-3-yl)amino)-6-methyl-5,6-dihydro-4H-pyrazolo[1,5-d][1,4]diazepin-7(8H)-one]
3 | 0.04 | Cc1c(-c2c(F)cc3cnc(Nc4cc5n(n4)CC(=O)N(C)CC5)cc3c2F)cnc2c1NCCO2 [Compound 223, 2-((5,7-difluoro-6-(8-methyl-2,3-dihydro-1H-pyrido[2,3-b][1,4]oxazin-7-yl)isoquinolin-3-yl)amino)-6-methyl-5,6-dihydro-4H-pyrazolo[1,5-d][1,4]diazepin-7(8H)-one]
4 | 0.013 | Cc1c(N)cncc1-c1cc2cc(Nc3cc4n(n3)CC(=O)NCC43CC3)ncc2cc1F [Compound 224, 2′-((6-(5-amino-4-methylpyridin-3-yl)-7-fluoroisoquinolin-3-yl)amino)-5′,6′-dihydrospiro[cyclopropane-1,4′-pyrazolo[1,5-d][1,4]diazepin]-7′(8′H)-one]
5 | 0.013 | Cc1c(N)cncc1-c1cc(F)c2cnc(Nc3cc4n(n3)CC(=O)NCC43CC3)cc2c1 [Compound 225, 2′-((6-(5-amino-4-methylpyridin-3-yl)-8-fluoroisoquinolin-3-yl)amino)-5′,6′-dihydrospiro[cyclopropane-1,4′-pyrazolo[1,5-d][1,4]diazepin]-7′(8′H)-one]
6 | 0.29 | CN1CCc2cc(Nc3cc4cc(-c5cncc(N)c5C(F)(F)F)c(F)cc4cn3)nn2CC1=O [Compound 227, 2-((6-(5-amino-4-(trifluoromethyl)pyridin-3-yl)-7-fluoroisoquinolin-3-yl)amino)-6-methyl-5,6-dihydro-4H-pyrazolo[1,5-d][1,4]diazepin-7(8H)-one]
7 | 0.793 | Cc1c(-c2cc3cc(Nc4cc5n(n4)CC(=O)NCC5)ncc3cc2F)cnc2c1NCCOC2 [Compound 230, 2-((7-fluoro-6-(9-methyl-1,2,3,5-tetrahydropyrido[3,2-e][1,4]oxazepin-8-yl)isoquinolin-3-yl)amino)-5,6-dihydro-4H-pyrazolo[1,5-d][1,4]diazepin-7(8H)-one]
8 | 11 | Cc1c(-c2cc3cc(Nc4cc5n(n4)CC(=O)N(C)CC5)ncc3cc2F)cnc2c1CNCCO2 [Compound 232, 2-((7-fluoro-6-(6-methyl-2,3,4,5-tetrahydropyrido[3,2-f][1,4]oxazepin-7-yl)isoquinolin-3-yl)amino)-6-methyl-5,6-dihydro-4H-pyrazolo[1,5-d][1,4]diazepin-7(8H)-one]
9 | 0.155 | Cc1ncc(-c2cc(F)c3cnc(Nc4cc5n(n4)CC(=O)NCC5)cc3c2)c(C)c1N [Compound 233, 2-((6-(5-amino-4,6-dimethylpyridin-3-yl)-8-fluoroisoquinolin-3-yl)amino)-5,6-dihydro-4H-pyrazolo[1,5-d][1,4]diazepin-7(8H)-one]
10 | 0.076 | Cc1c(CC#N)cncc1-c1cc(F)c2cnc(Nc3cc4n(n3)CC(=O)NCC4)cc2c1 [Compound 238, 2-(5-(8-fluoro-3-((7-oxo-5,6,7,8-tetrahydro-4H-pyrazolo[1,5-d][1,4]diazepin-2-yl)amino)isoquinolin-6-yl)-4-methylpyridin-3-yl)acetonitrile]
11 | 0.062 | Cc1c(NCC(F)(F)F)cncc1-c1cc2cc(Nc3cc4n(n3)CC(=O)NCC4)ncc2cc1F [Compound 239, 2-((7-fluoro-6-(4-methyl-5-((2,2,2-trifluoroethyl)amino)pyridin-3-yl)isoquinolin-3-yl)amino)-5,6-dihydro-4H-pyrazolo[1,5-d][1,4]diazepin-7(8H)-one]
12 | 0.014 | Cc1c(-c2cc3cc(Nc4cc5n(n4)CC(=O)N(C)CC5)ncc3cc2F)cnc2c1NCC(C)(C)C2=O [Compound 240, 2-((7-fluoro-6-(4,7,7-trimethyl-8-oxo-5,6,7,8-tetrahydro-1,5-naphthyridin-3-yl)isoquinolin-3-yl)amino)-6-methyl-5,6-dihydro-4H-pyrazolo[1,5-d][1,4]diazepin-7(8H)-one]

The next lines start with the compound.

Row | Structure (SMILES) | Ki [nM]
13 | CN1CCc2cc(Nc3cc4cc(-c5cccc6c5CCNC6)c(F)cc4cn3)nn2CC1=O [Compound 200, 2-((7′-fluoro-1,2,3,4-tetrahydro-[5,6′-biisoquinolin]-3′-yl)amino)-6-methyl-5,6-dihydro-4H-pyrazolo[1,5-d][1,4]diazepin-7(8H)-one] | 127
14 | Cc1[nH]ncc1-c1cc2cc(Nc3cc4n(n3)CC(=O)N(C)CC4)ncc2c(O)c1F [Compound 202, 2-((7-fluoro-8-hydroxy-6-(5-methyl-1H-pyrazol-4-yl)isoquinolin-3-yl)amino)-6-methyl-5,6-dihydro-4H-pyrazolo[1,5-d][1,4]diazepin-7(8H)-one] | 119
15 | Cc1c(-c2cc3cc(Nc4cc5n(n4)CC(=O)N(C)CC5)ncc3cc2F)cnc(=O)n1C [Compound 203, 2-((6-(1,6-dimethyl-2-oxo-1,2-dihydropyrimidin-5-yl)-7-fluoroisoquinolin-3-yl)amino)-6-methyl-5,6-dihydro-4H-pyrazolo[1,5-d][1,4]diazepin-7(8H)-one] | 97
16 | Cc1c(CS(C)(=O)=O)cncc1-c1cc2cc(Nc3cc4n(n3)CC(=O)N(C)CC4)ncc2cc1F [Compound 204, 2-((7-fluoro-6-(4-methyl-5-((methylsulfonyl)methyl)pyridin-3-yl)isoquinolin-3-yl)amino)-6-methyl-5,6-dihydro-4H-pyrazolo[1,5-d][1,4]diazepin-7(8H)-one] | 0.18
17 | Cc1c(CN)cccc1-c1cc2cc(Nc3cc4n(n3)CC(=O)N(C)CC4)ncc2cc1F [Compound 207, 2-((6-(3-(aminomethyl)-2-methylphenyl)-7-fluoroisoquinolin-3-yl)amino)-6-methyl-5,6-dihydro-4H-pyrazolo[1,5-d][1,4]diazepin-7(8H)-one] | 22
18 | Cc1c(-c2cc3cc(Nc4cc5n(n4)CC(=O)N(C)CC5)ncc3cc2F)cnc2c1NCCC2(F)F [Compound 208, 2-((6-(8,8-difluoro-4-methyl-5,6,7,8-tetrahydro-1,5-naphthyridin-3-yl)-7-fluoroisoquinolin-3-yl)amino)-6-methyl-5,6-dihydro-4H-pyrazolo[1,5-d][1,4]diazepin-7(8H)-one] | 0.02
19 | Cc1c(-c2cc3cc(Nc4cc5n(n4)CC(=O)N(C)CC5)ncc3cc2F)cnc2c(=O)n(C)[nH]c12 [Compound 209, 2-((6-(2,7-dimethyl-3-oxo-2,3-dihydro-1H-pyrazolo[4,3-b]pyridin-6-yl)-7-fluoroisoquinolin-3-yl)amino)-6-methyl-5,6-dihydro-4H-pyrazolo[1,5-d][1,4]diazepin-7(8H)-one] | 1.9
20 | CNCc1cncc(-c2cc3cc(Nc4cc5n(n4)CC(=O)N(C)CC5)ncc3cc2F)c1C [Compound 210, 2-((7-fluoro-6-(4-methyl-5-((methylamino)methyl)pyridin-3-yl)isoquinolin-3-yl)amino)-6-methyl-5,6-dihydro-4H-pyrazolo[1,5-d][1,4]diazepin-7(8H)-one] | 37
21 | Cc1c(CN)cncc1-c1cc2cc(Nc3cc4n(n3)CC(=O)N(C)CC4)ncc2cc1F [Compound 211, 2-((6-(5-(aminomethyl)-4-methylpyridin-3-yl)-7-fluoroisoquinolin-3-yl)amino)-6-methyl-5,6-dihydro-4H-pyrazolo[1,5-d][1,4]diazepin-7(8H)-one] | 19
22 | Cc1cc(CN)ncc1-c1cc2cc(Nc3cc4n(n3)CC(=O)N(C)CC4)ncc2cc1F [Compound 212, 2-((6-(6-(aminomethyl)-4-methylpyridin-3-yl)-7-fluoroisoquinolin-3-yl)amino)-6-methyl-5,6-dihydro-4H-pyrazolo[1,5-d][1,4]diazepin-7(8H)-one] | 50
23 | Cc1cc(CN)ccc1-c1cc2cc(Nc3cc4n(n3)CC(=O)N(C)CC4)ncc2cc1F [Compound 213, 2-((6-(4-(aminomethyl)-2-methylphenyl)-7-fluoroisoquinolin-3-yl)amino)-6-methyl-5,6-dihydro-4H-pyrazolo[1,5-d][1,4]diazepin-7(8H)-one] | 25
24 | CN1CCc2cc(Nc3cc4cc(-c5cccc6c5CNC6)c(F)cc4cn3)nn2CC1=O [Compound 215, 2-((7-fluoro-6-(isoindolin-4-yl)isoquinolin-3-yl)amino)-6-methyl-5,6-dihydro-4H-pyrazolo[1,5-d][1,4]diazepin-7(8H)-one] | 364
25 | Cc1c(N)cnnc1-c1cc2cc(Nc3cc4n(n3)CC(=O)N(C)CC4)ncc2cc1F [Compound 216, 2-((6-(5-amino-4-methylpyridazin-3-yl)-7-fluoroisoquinolin-3-yl)amino)-6-methyl-5,6-dihydro-4H-pyrazolo[1,5-d][1,4]diazepin-7(8H)-one] | 2.3
26 | CNCc1cccc(-c2cc3cc(Nc4cc5n(n4)CC(=O)N(C)CC5)ncc3cc2F)c1C [Compound 217, 2-((7-fluoro-6-(2-methyl-3-((methylamino)methyl)phenyl)isoquinolin-3-yl)amino)-6-methyl-5,6-dihydro-4H-pyrazolo[1,5-d][1,4]diazepin-7(8H)-one] | 64
27 | CNCc1ccc(F)c(-c2ccc3cnc(Nc4cc5n(n4)CC(=O)N(C)CC5)cc3c2)c1C [Compound 219, 2-((6-(6-fluoro-2-methyl-3-((methylamino)methyl)phenyl)isoquinolin-3-yl)amino)-6-methyl-5,6-dihydro-4H-pyrazolo[1,5-d][1,4]diazepin-7(8H)-one] | 7
28 | CNCc1cc(-c2ccc3cnc(Nc4cc5n(n4)CC(=O)N(C)CC5)cc3c2)c(F)cc1C [Compound 220, 2-((6-(2-fluoro-4-methyl-5-((methylamino)methyl)phenyl)isoquinolin-3-yl)amino)-6-methyl-5,6-dihydro-4H-pyrazolo[1,5-d][1,4]diazepin-7(8H)-one] | 176
